From paper PMC9841765 (Archives of biochemistry and biophysics, 2020)

Columns and labels:
Assay in all cases: malachite green phosphate release
Assay type in all cases: biochemical
Conditions in all cases: pH 8.0, 5 mM MgCl2, 200 mM KCl, 37 °C
SaNFeoB = SaNFeoB (Staphylococcus aureus, UniProt Q5HD01)
LmNFeoB = LmNFeoB (Listeria monocytogenes, UniProt Q8Y5F9)
SmNFeoB = biological target: T1, SmNFeoB (Streptococcus mutans, UniProt Q8DVC3)
T1 sequence (Q8DVC3 1-273): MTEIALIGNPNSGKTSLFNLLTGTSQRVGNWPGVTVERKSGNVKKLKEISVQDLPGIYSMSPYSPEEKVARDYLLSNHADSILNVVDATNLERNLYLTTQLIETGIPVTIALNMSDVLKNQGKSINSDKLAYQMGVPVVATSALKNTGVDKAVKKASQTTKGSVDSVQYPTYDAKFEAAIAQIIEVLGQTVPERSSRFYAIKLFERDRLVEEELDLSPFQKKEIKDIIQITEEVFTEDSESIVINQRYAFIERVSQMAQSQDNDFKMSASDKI

BcNFeoB = biological target: T2, BcNFeoB (Bacillus cereus, UniProt Q72YQ6)
T2 sequence (Q72YQ6 1-269): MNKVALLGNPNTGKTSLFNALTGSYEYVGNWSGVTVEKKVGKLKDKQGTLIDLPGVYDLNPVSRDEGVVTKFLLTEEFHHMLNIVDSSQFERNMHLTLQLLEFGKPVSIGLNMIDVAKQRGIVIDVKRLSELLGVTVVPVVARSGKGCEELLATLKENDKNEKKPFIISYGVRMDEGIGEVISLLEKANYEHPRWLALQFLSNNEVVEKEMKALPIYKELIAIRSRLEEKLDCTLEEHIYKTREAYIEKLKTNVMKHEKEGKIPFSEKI

EcNFeoB = biological target: T3, EcNFeoB (Escherichia coli, UniProt P33650)
T3 sequence (P33650 1-274): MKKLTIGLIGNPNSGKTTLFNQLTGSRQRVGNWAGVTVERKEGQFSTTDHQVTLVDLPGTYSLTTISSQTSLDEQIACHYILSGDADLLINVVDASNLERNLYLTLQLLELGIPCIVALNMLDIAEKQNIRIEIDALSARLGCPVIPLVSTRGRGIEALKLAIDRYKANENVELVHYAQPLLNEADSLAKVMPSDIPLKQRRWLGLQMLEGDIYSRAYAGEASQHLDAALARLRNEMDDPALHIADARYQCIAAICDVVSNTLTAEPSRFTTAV

StNFeoB = StNFeoB (Salmonella enterica, UniProt P74884)
PaNFeoB = PaNFeoB (Pseudomonas aeruginosa, UniProt Q9HW43)

Chain of SaNFeoB (Q5HD01 1-272): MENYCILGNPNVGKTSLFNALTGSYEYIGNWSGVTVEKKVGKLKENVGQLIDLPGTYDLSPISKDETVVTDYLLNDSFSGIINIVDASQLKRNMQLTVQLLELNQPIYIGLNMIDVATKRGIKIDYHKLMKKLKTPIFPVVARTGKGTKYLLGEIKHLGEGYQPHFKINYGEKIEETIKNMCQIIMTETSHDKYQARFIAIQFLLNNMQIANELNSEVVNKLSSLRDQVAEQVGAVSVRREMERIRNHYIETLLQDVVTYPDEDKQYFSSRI
Chain of StNFeoB (P74884 1-274): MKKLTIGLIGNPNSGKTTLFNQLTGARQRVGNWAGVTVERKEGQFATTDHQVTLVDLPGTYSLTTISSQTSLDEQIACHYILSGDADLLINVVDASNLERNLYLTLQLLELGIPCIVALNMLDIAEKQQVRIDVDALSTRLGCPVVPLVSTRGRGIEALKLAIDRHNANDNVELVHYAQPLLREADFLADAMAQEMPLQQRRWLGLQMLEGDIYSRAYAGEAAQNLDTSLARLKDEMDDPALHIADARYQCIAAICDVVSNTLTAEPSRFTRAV

Row | Compound | malachite green phosphate release (SaNFeoB) | malachite green phosphate release (LmNFeoB) | malachite green phosphate release (SmNFeoB) | malachite green phosphate release (BcNFeoB) | malachite green phosphate release (EcNFeoB) | malachite green phosphate release (StNFeoB) | malachite green phosphate release (PaNFeoB)
1 | Nc1ncnc2c1ncn2[C@@H]1O[C@H](COP(=O)(O)OP(=O)(O)OP(=O)(O)O)[C@@H](O)[C@H]1O [ATP] | the NFeoB activities of S. aureus, S. mutans, and B. cereus | LmNFeoB exhibited ATP hydrolysis activity similar to the activity of VcNFeoB | the NFeoB activities of S. aureus, S. mutans, and B. cereus | the NFeoB activities of S. aureus, S. mutans, and B. cereus |  |  | 
2 | Nc1nc2c(ncn2[C@@H]2O[C@H](COP(=O)(O)OP(=O)(O)OP(=O)(O)O)[C@@H](O)[C@H]2O)c(=O)[nH]1 [GTP] | the NFeoB activities of S. aureus, S. mutans, and B. cereus | Its GTPase activity was higher than other monovalent cations | the NFeoB activities of S. aureus, S. mutans, and B. cereus | the NFeoB activities of S. aureus, S. mutans, and B. cereus | Like E. coli, S. Typhimurium and P. aeruginosa exhibited only GTP hydrolytic activity | S. Typhimurium and P. aeruginosa exhibited only GTP hydrolytic activity | S. Typhimurium and P. aeruginosa exhibited only GTP hydrolytic activity
